Earlier results, collected in patent EP4602929A1, “ORAL PRODUCT WITH POWDER COATING” (Nicoventures Trading Limited, priority 2024, dated 2025).

Structure (SMILES) | solubility in water
CC(/C=C/C=C(C)/C=C/C(=O)O)=C\C=C\C=C(C)\C=C\C=C(C)\C=C\C(=O)O (stereo in doubt) [norbixin, (2E,4E,6E,8E,10E,12E,14E,16E,18E)-4,8,13,17-tetramethylicosa-2,4,6,8,10,12,14,16,18-nonaenedioic acid] | water soluble
COC(=O)/C=C/C(C)=C\C=C\C(C)=C\C=C\C=C(C)\C=C\C=C(C)\C=C\C(=O)O [bixin, (2E,4E,6E,8E,10E,12E,14E,16Z,18E)-20-methoxy-4,8,13,17-tetramethyl-20-oxoicosa-2,4,6,8,10,12,14,16,18-nonaenoic acid] | insoluble in water
